The values that follow come from patent publication US20260373248A1, “DEGRADABLE PEPTOIDS” (Medici Therapeutics, Inc., priority 2023, published 2026).

Non-standard residues stand in square brackets, D forms with d. Residues, ends and D or L forms follow the SMILES beside them. *: point of attachment. Gly(N-(3-decanoyloxypropyl)) = CCCCCCCCCC(=O)OCCCNCC(=O)O; N(3-lauroyloxypropyl)Gly = CCCCCCCCCCCC(=O)OCCCNCC(=O)O; N(2-decanoyloxyethyl)Gly = CCCCCCCCCC(=O)OCCNCC(=O)O; Gly(N-3-morpholinopropyl) = O=C(O)CNCCCN1CCOCC1; N(2-ethylhexyl)Gly = CCCCC(CC)CNCC(=O)O; N(CH(CH2OH)2)Gly = O=C(O)CNC(CO)CO; NDecylGly = CCCCCCCCCCNCC(=O)O; NHexGly = CCCCCCNCC(=O)O; For = O=C*

Data set [1] in a line: Peptoid quantity remaining in liver by HPLC-TOF mass spectrometry. In kind it is in vivo. The note with it: liver homogenate. In short, it runs like this: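 Whole liver weighed; 20 mg tissue bead-homogenized in IPA/MeOH (8/2) with internal standard, centrifuged, supernatant run on BEH C8 HPLC-TOF MS. Peptoid concentration derived from linear calibration curve (0.2-50 μg/g) prepared in spiked untreated liver.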

In data set [2] the test system is mRNA. Nature of the data set: mRNA encapsulation (modified Quant-iT RiboGreen assay). In kind it is physicochemical. The note with it: for mean percent encapsulation of RNA: RiboGreen, without vs with Triton X-100; for % Encapsulation: mRNA. An outline of the steps:
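Encapsulated fraction was calculated by comparing RiboGreen signal (excitation 485 nm, emission 530 nm) of intact particles with that of particles lysed by a 10-min Triton X-100 treatment. Total mRNA concentration was taken from the lysed samples.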

The nature of data set [3]: Delivery vehicle size and polydispersity by dynamic light scattering. In kind it is physicochemical. An outline of the steps:
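Dynamic light scattering in PBS gave size and polydispersity of peptoid LNPs. These were dialyzed overnight at 4 °C into tris-sucrose buffer pH 7.4 after microfluidic 1:3 volume mixing of mRNA in pH 5.0 citrate with ethanol lipids (peptoid:DSPC:cholesterol:DMG-PEG2000 20:1.79:7.16:1.84 w/w).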

Data set [4] has as its system hEPO. Nature of the data set: Quantification of hEPO in serum after IV injection of mRNA (Human EPO ELISA). In kind it is in vivo. The conditions noted are these: Balb/c mice, 2.5 μg mRNA IV, serum after 6 hours. In short, it runs like this: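 Balb/c mice received 2.5 μg mRNA encoding human EPO by IV injection; serum was collected after 6 hours. hEPO was measured by sandwich ELISA (biotin-conjugate, streptavidin-HRP, TMB, A450) against kit standards (mIU/mL) and an external standard (ng/mL), with values interpolated and corrected for dilution.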
A general note: An ELISA detects its analyte on a solid surface through an enzyme-linked reagent.

The subject of data set [5] is firefly luciferase. The data set can be described thus: In vivo firefly luciferase expression after intravenous injection of fLuc mRNA delivery vehicles (IVIS imaging). The note with it: for Total Flux (luciferase expression): fLuc mRNA, intravenous, Balb/c mice; for Total Flux: mice, 2.5 ug fLuc mRNA intravenously, 6 hours post-injection. The arrangement: species or system female Balb/c mice. An outline of the steps:
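Read-out is total photon flux per region of interest, from whole-body IVIS images taken 10 minutes after IP D-luciferin (30 mg/mL, 10 μL/g) and from excised organs. Female Balb/c mice aged 6-8 weeks received 2.5 ug fLuc mRNA Nutshells intravenously 6 hours before imaging.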

The subject of data set [6] is luciferase. Nature of the data set: Luciferase expression after local (intramuscular or subcutaneous) administration of mRNA. In kind it is in vivo. The note with it: mRNA 0.01 mpk, 6 hours; for IM Flux: intramuscular; for SC Flux: subcutaneous. An outline of the steps:
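Bioluminescence read 6 hours after fLuc mRNA dosing (peptoid Nutshells; 0.01 mpk S.C. or I.M., 0.1 mpk intratumoral) in female Balb/c mice aged 6-8 weeks. D-luciferin injected IP, whole-body imaging after 10 minutes, then organ imaging; total photon flux per region of interest.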

Where [7] appears, read: DLS in PBS, peptoid:DSPC:Cholesterol:DMG-PEG2000 weight ratio 20:1.79:7.16:1.84, mRNA.

In the case of `CCCCCCCCCCN(CC(=O)N(CC(=O)N(CCCOC(=O)CCCCCCCCC)CC(N)=O)CC(CC)CCCC)C(=O)CN(CC(CC)CCCC)C(=O)CN(CCCOC(=O)CCCCCCCCC)C(=O)CN(CC(CC)CCCC)C(=O)CNC(CO)CO` (stereo not drawn) [Compound 58] (H-[N(CH(CH2OH)2)Gly][N(2-ethylhexyl)Gly][Gly(N-(3-decanoyloxypropyl))][N(2-ethylhexyl)Gly][NDecylGly][N(2-ethylhexyl)Gly][Gly(N-(3-decanoyloxypropyl))]-NH2), the “% of injected dose remaining in liver” value in data set [1] is on record as −1.37%. In data set [2], the “mean percent encapsulation of RNA” value is listed as 78.1%. The “% Encapsulation” value in data set [2] (formulation recipe D22) was 78.1%; in data set [2] (formulation recipe O5) it was 92.8%; in data set [2] (formulation recipe O8), 92.9%. Moreover, the PDI in data set [3] (setting [7]) was determined as 0.159. The “Particle Size” value in data set [3] (setting [7]) turned out to be 70.4 nm; in data set [3] (formulation recipe D22), 70.4 nm; in data set [3] (formulation recipe O5) it was 56.3 nm; in data set [3] (formulation recipe O8), 57.5 nm. This compound showed a hEPO in data set [4] of 386 ng/mL. Further, the “Total Flux (luciferase expression)” value in data set [5] (formulation recipe D22) was found to be 3.94E+09 p/s; in data set [5] (formulation recipe O5), 5.84E+08 p/s; in data set [5] (formulation recipe O8), 1.02E+09 p/s. Further, in data set [5], the “Total Flux” value turned out to be 3.94E+09 p/s. Moreover, the “IM Flux” value in data set [6] is 5.53E+08 p/s. The “SC Flux” value in data set [6] was 1.99E+07 p/s.

`CCCCCCCCCCCC(=O)OCCCN(CC(=O)N(CC(=O)N(CCCCCC)CC(=O)N(CCCOC(=O)CCCCCCCCCCC)CC(=O)N(CC(=O)N(CCCCCC)CC(N)=O)CC(CC)CCCC)CC(CC)CCCC)C(=O)CN(C=O)CCCN1CCOCC1` (stereo not drawn) [Compound 70] (For-[Gly(N-3-morpholinopropyl)][N(3-lauroyloxypropyl)Gly][N(2-ethylhexyl)Gly][NHexGly][N(3-lauroyloxypropyl)Gly][N(2-ethylhexyl)Gly][NHexGly]-NH2): in data set [1], the “% of injected dose remaining in liver” value was determined as 8.06%. For the same compound, the “mean percent encapsulation of RNA” value in data set [2] came to 77.2%. Further, in data set [3] (setting [7]), the PDI was 0.082 and the “Particle Size” value is reported as 101.3 nm. The hEPO in data set [4] was 201 ng/mL. Also, the “Total Flux” value in data set [5] is 1.04E+09 p/s. For the same compound, in data set [6], the “IM Flux” value is recorded as 4.46E+06 p/s and the “SC Flux” value came to 2.02E+08 p/s.

For the compound `CCCCCCCCCC(=O)OCCN(CC(N)=O)C(=O)CN(CC(CC)CCCC)C(=O)CN(CCOC(=O)CCCCCCCCC)C(=O)CN(CCOC(=O)CCCCCCCCC)C(=O)CN(CC(CC)CCCC)C(=O)CN(CCOC(=O)CCCCCCCCC)C(=O)CNC(CO)CO` (stereo not drawn) [Compound 56] (H-[N(CH(CH2OH)2)Gly][N(2-decanoyloxyethyl)Gly][N(2-ethylhexyl)Gly][N(2-decanoyloxyethyl)Gly][N(2-decanoyloxyethyl)Gly][N(2-ethylhexyl)Gly][N(2-decanoyloxyethyl)Gly]-NH2), in data set [1], the “% of injected dose remaining in liver” value was found to be 24.83%. Also, the “mean percent encapsulation of RNA” value in data set [2] was 23.8%. Besides, the “% Encapsulation” value in data set [2] (formulation recipe O3) turned out to be 86.9%; in data set [2] (formulation recipe O5) it was 89.6%. Besides, the PDI in data set [3] (setting [7]) turned out to be 0.234. Moreover, the “Particle Size” value in data set [3] (setting [7]) was 102.4 nm; in data set [3] (formulation recipe O3) it was 57.9 nm; in data set [3] (formulation recipe O5) it was 62.4 nm. Also, the hEPO in data set [4] was 551 ng/mL. Further, the “Total Flux (luciferase expression)” value in data set [5] (formulation recipe O3) is 5.66E+08 p/s; in data set [5] (formulation recipe O5), 6.97E+08 p/s. Besides, the “Total Flux” value in data set [5] is given as 2.42E+09 p/s. In data set [6], the “IM Flux” value is listed as 5.78E+07 p/s. Moreover, the “SC Flux” value in data set [6] is recorded as 8.24E+07 p/s.

Take `CCCCCCCCCC(=O)OCCCN(CC(N)=O)C(=O)CN(CC(CC)CCCC)C(=O)CN(CCCOC(=O)CCCCCCCCC)C(=O)CN(CCCOC(=O)CCCCCCCCC)C(=O)CN(CCCOC(=O)CCCCCCCCC)C(=O)CN(CC(CC)CCCC)C(=O)CNC(CO)CO` (stereo not drawn) [Compound 103] (H-[N(CH(CH2OH)2)Gly][N(2-ethylhexyl)Gly][Gly(N-(3-decanoyloxypropyl))][Gly(N-(3-decanoyloxypropyl))][Gly(N-(3-decanoyloxypropyl))][N(2-ethylhexyl)Gly][Gly(N-(3-decanoyloxypropyl))]-NH2): the “% of injected dose remaining in liver” value in data set [1] is “bdl”. For the same compound, in data set [2], the “mean percent encapsulation of RNA” value is recorded as 76.8%. Moreover, in data set [3] (setting [7]), the PDI was 0.111 and the “Particle Size” value stood at 81.5 nm. The compound further displayed a hEPO in data set [4] of 961 ng/mL. Further, in data set [5], the “Total Flux” value is reported as 8.56E+09 p/s. Moreover, in data set [6], the “IM Flux” value was determined as 1.93E+08 p/s and the “SC Flux” value was 7.28E+08 p/s.

For `CCCCCCCCCCCC(=O)OCCCN(CC(=O)N(CC(=O)N(CC(=O)N(CCCOC(=O)CCCCCCCCCCC)CC(=O)N(CC(N)=O)CC(CC)CCCC)CC(CC)CCCC)CC(CC)CCCC)C(=O)CN(CC(CC)CCCC)C(=O)CN(C=O)CCCN1CCOCC1` (stereo not drawn) [Compound 64] (For-[Gly(N-3-morpholinopropyl)][N(2-ethylhexyl)Gly][N(3-lauroyloxypropyl)Gly][N(2-ethylhexyl)Gly][N(2-ethylhexyl)Gly][N(3-lauroyloxypropyl)Gly][N(2-ethylhexyl)Gly]-NH2), the “% of injected dose remaining in liver” value in data set [1] is 5.30%. For the same compound, the “mean percent encapsulation of RNA” value in data set [2] was 67.3%. Moreover, in data set [3] (setting [7]), the PDI amounted to 0.096 and the “Particle Size” value worked out at 77.8 nm. Moreover, the hEPO in data set [4] came to 87 ng/mL. Besides, the “Total Flux” value in data set [5] was 6.54E+08 p/s. Also, in data set [6], the “IM Flux” value is 1.42E+08 p/s and the “SC Flux” value was determined as 1.33E+08 p/s.

Take `CCCCCCCCCC(=O)OCCN(CC(N)=O)C(=O)CN(CCOC(=O)CCCCCCCCC)C(=O)CN(CC(CC)CCCC)C(=O)CN(CCOC(=O)CCCCCCCCC)C(=O)CN(CCOC(=O)CCCCCCCCC)C(=O)CN(CC(CC)CCCC)C(=O)CNC(CO)CO` (stereo not drawn) [Compound 105] (H-[N(CH(CH2OH)2)Gly][N(2-ethylhexyl)Gly][N(2-decanoyloxyethyl)Gly][N(2-decanoyloxyethyl)Gly][N(2-ethylhexyl)Gly][N(2-decanoyloxyethyl)Gly][N(2-decanoyloxyethyl)Gly]-NH2): the “% of injected dose remaining in liver” value in data set [1] turned out to be 7.51%. Moreover, in data set [2], the “mean percent encapsulation of RNA” value was determined as 73.2%. Also, the “% Encapsulation” value is on record as 73.2% in data set [2] (formulation recipe D22); 92.7% in data set [2] (formulation recipe R1); 73.1% in data set [2] (formulation recipe R4); 94.6% in data set [2] (formulation recipe R5); 94.0% in data set [2] (formulation recipe R9); 93.2% in data set [2] (formulation recipe R10). Also, the PDI in data set [3] (setting [7]) came out at 0.150. Also, the “Particle Size” value in data set [3] (setting [7]) amounted to 75.9 nm; in data set [3] (formulation recipe D22), 75.9 nm; in data set [3] (formulation recipe R1) it was 55.6 nm; in data set [3] (formulation recipe R4), 59.6 nm; in data set [3] (formulation recipe R5), 63.5 nm; in data set [3] (formulation recipe R9), 64.9 nm. The “Particle Size” value in data set [3] (formulation recipe R10) is 68.6 nm. Besides, in data set [4], the hEPO amounted to 580 ng/mL. Also, the “Total Flux (luciferase expression)” value is recorded as 1.05E+10 p/s in data set [5] (formulation recipe D22); 4.15E+08 p/s in data set [5] (formulation recipe R1); 2.47E+09 p/s in data set [5] (formulation recipe R4); 1.28E+09 p/s in data set [5] (formulation recipe R5); 1.56E+09 p/s in data set [5] (formulation recipe R9); 2.70E+09 p/s in data set [5] (formulation recipe R10). Moreover, the “Total Flux” value in data set [5] stood at 1.05E+10 p/s. In addition, in data set [6], the “IM Flux” value stood at 2.85E+08 p/s. Besides, in data set [6], the “SC Flux” value was determined as 9.57E+08 p/s.
